Laboratory results as given in the supplement of paper PMC8837787.

What was measured:
[1] = test system: Saccharomyces cerevisiae ABC16-Green Monster; conditions: 18 h; 30 °C; YPD
Protocol: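 Growth inhibition of the drug-sensitive S. cerevisiae ABC16-Green Monster strain (16 ABC transporters deleted) in YPD at 30 °C for 18 h. […] dilution series […] in biological replicates; IC50 from OD600 (18 h minus 0 h) fitted by variable-slope nonlinear regression in GraphPad Prism. Library compounds were first screened at 150 µM, and only those with at least 70% inhibition went to dose-response; the rest are marked inactive.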

[2] = test system: Saccharomyces cerevisiae ABC16-Green Monster; test: growth inhibition at single dose (up to 150 µM), below the 70% cut-off for dose-response; higher = more potent; conditions: 18 h; 30 °C; YPD
Procedure, shortened: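 Percent growth inhibition is the reported value. Drug-sensitive S. cerevisiae ABC16-Green Monster cultures in log phase (OD600 0.1–0.2), 200 µl per well in 96-well plates, received each library compound once at 150 µM in biological duplicates, with untreated cultures run alongside. Growth was followed by OD600 at 0 h and after 18 h at 30 °C. Dose-response was not done for compounds below 70% in both replicates.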

CNCCC(Oc1ccc(C(F)(F)F)cc1)c1ccccc1 (stereo unspecified) [Fluoxetin]
IC50 growth inhibition [1]: 59.5 µM

CC1C=CC=CC=CC=CC=CC=CC=CC(OC2OC(C)C(O)C(N)C2O)CC2OC(O)(CC(O)CC(O)C(O)CCC(O)CC(O)CC(=O)OC(C)C(C)C1O)CC(O)C2C(=O)O (stereo unspecified) [Amphotericin B]
IC50 growth inhibition [1]: 63.3 µM

C[C@@H]1COCCN1c1cc(C2(S(C)(=O)=O)CC2)nc(-c2cccc3[nH]ccc23)n1 [AZ-20]
IC50 growth inhibition [1]: > 75 µM

COc1cc(CNC(=O)CCCCC=CC(C)C)ccc1O [Capsaicin]
IC50 growth inhibition [1]: > 150 µM

FC(F)(F)c1ccc(N(c2cccnc2)C2CCN(c3ccc(C(F)(F)F)cn3)CC2)cc1
IC50 growth inhibition [1]: 40 µM

c1ccc(CSc2scnc2[P+](c2ccccc2)(c2ccccc2)c2ccccc2)cc1 [GNF-Pf-238]
IC50 growth inhibition [1]: 4.06 µM

C=CCn1c(C)cc(C(=O)CSc2nc3ccccc3[nH]2)c1C
IC50 growth inhibition [1]: 4.24 µM

N=C(N)Nc1ccc(-c2ccc(-c3ccc(NC(=N)N)cc3Cl)o2)c(Cl)c1
IC50 growth inhibition [1]: 44.5 µM

Cc1nc(-c2ccccn2)nc(N(C)CCc2ccccc2)c1Cl
IC50 growth inhibition [1]: 43.3 µM

Nc1ccc(C(=O)Nc2ccc(-c3nc4ccccc4o3)cc2)cc1
IC50 growth inhibition [1]: 19 µM

Cc1cc(NS(=O)(=O)c2ccc(Nc3nc(-c4ccc(Cl)c(Cl)c4)cs3)cc2)no1 [CBR410]
IC50 growth inhibition [1]: 4.87 µM

O=C(C(Cc1c[nH]c2ccccc12)NS(=O)(=O)c1ccc(Cl)cc1)N1CCCCC1 (stereo unspecified)
IC50 growth inhibition [1]: 42.4 µM

Clc1ccc(Cl)c(CO[C@H]2CCCC[C@@H]2n2ccnc2)c1
IC50 growth inhibition [1]: 68.6 µM

Cn1ncc2c(N3CCOCC3)nc(NCCc3c[nH]c4ccccc34)nc21
IC50 growth inhibition [1]: 69.3 µM

O=C(Nc1nc(-c2ccccn2)cs1)c1ccccc1Br
IC50 growth inhibition [1]: 8.35 µM

CN(C)CCC=C1c2ccccc2CCc2ccccc21 [Amitriptyline]
IC50 growth inhibition [1]: 56.8 µM

Cc1cc(C(=O)Cn2nnc3ccccc3c2=O)c(C)n1-c1ccccc1F
IC50 growth inhibition [1]: 20.5 µM

OC1=C2C(=Nc3ccccc3SC2c2cccs2)c2ccccc21 (stereo unspecified) [GNF-Pf-5669]
IC50 growth inhibition [1]: > 150 µM

CN1CCN(CCCN2c3ccccc3Sc3ccc(Cl)cc32)CC1 [Prochlorperazine]
IC50 growth inhibition [1]: 28.6 µM

c1ccc(-c2cn3nc(NCc4ccccc4CN4CCOCC4)sc3n2)cc1
IC50 growth inhibition [1]: 106 µM

O=C(Nc1ccc(C(F)(F)F)c(C(F)(F)F)c1)c1cc(Cl)ccc1O
IC50 growth inhibition [1]: 5.64 µM

c1ccc(-c2cn3nc(N4CCN(Cc5cn6ccccc6n5)CC4)sc3n2)cc1
IC50 growth inhibition [1]: 50.8 µM

CNCCC(Oc1ccc(C(F)(F)F)cc1)c1ccccc1 (stereo unspecified)
IC50 growth inhibition [1]: 48.3 µM

COCCNCC(O)Cn1c2ccc(Cl)cc2c2cc(Cl)ccc21 (stereo unspecified)
IC50 growth inhibition [1]: 11 µM

N#Cc1c(N2CCCC2)nn(C(=O)Nc2ccc(Cl)c(Cl)c2)c1N
IC50 growth inhibition [1]: 4.53 µM

Cc1cc(C(=O)NNC(=O)c2c(C)nc3ccccn23)c2nc3n(c2n1)CCCCC3
IC50 growth inhibition [1]: 41.8 µM

CCNC(=O)C(C)Nc1nc(-c2cccnc2)nc2sc(C)c(C)c12 (stereo unspecified)
growth inhibition at single dose [2]: < 70%

Cc1ccc(-n2c(C)cc(C(=O)COC(=O)c3ccc[nH]c3=O)c2C)cc1C
growth inhibition at single dose [2]: < 70%

N#Cc1ccc(NC(=O)Cn2ncc(Cl)c(Cl)c2=O)cc1
growth inhibition at single dose [2]: < 70%

O=C(Nc1ncccc1O)c1ccc(Cn2cccn2)cc1
growth inhibition at single dose [2]: < 70%

Cc1ccccc1NC(=O)c1cc2ccccc2c(CN2CCC3(CC2)OCCO3)c1O
growth inhibition at single dose [2]: < 70%

O=C1CC(O)(C(F)(F)C(F)(F)F)Oc2ccccc21 (stereo unspecified)
growth inhibition at single dose [2]: < 70%

COc1ccc2c(c1)OC(O)(C(F)(F)C(F)(F)F)CC2=O (stereo unspecified)
growth inhibition at single dose [2]: < 70%

CCOc1ccccc1NC(C)C(=O)Nc1cc(C(F)(F)F)ccc1N1CCOCC1 (stereo unspecified)
growth inhibition at single dose [2]: < 70%

COc1ccc(C=C2SC(=N)N(c3ccccc3OC)C2=O)cc1
growth inhibition at single dose [2]: < 70%

Cc1ccc(Sc2nc(-c3cccs3)ns2)cc1
growth inhibition at single dose [2]: < 70%

COC(=O)c1cc(OC)c(OC)cc1NS(=O)(=O)c1ccc(Cl)cc1
growth inhibition at single dose [2]: < 70%

O=C1C=C/C(=N\Nc2ccc3ccccc3c2)c2cccnc21
growth inhibition at single dose [2]: < 70%

COCC(C)NC(=O)CSc1ncnc2sc(-c3ccccc3)cc12 (stereo unspecified)
growth inhibition at single dose [2]: < 70%

Cc1cc(C(=O)Cn2c(CO)nc3ccccc32)c(C)n1Cc1ccco1
growth inhibition at single dose [2]: < 70%

CCOC(=O)CC(=O)CSc1nnc(-c2ccccc2Cl)n1-c1ccccc1F
growth inhibition at single dose [2]: < 70%

CN(C)c1ccc(-c2nc3cc(N)ccc3[nH]2)cc1
growth inhibition at single dose [2]: < 70%

CC(=O)NCCc1nc2ccccc2n1Cc1ccc(C(C)C)cc1
growth inhibition at single dose [2]: < 70%

CCOC(=O)c1cnc2c(C)cccc2c1Nc1ccc(C(C)=O)cc1
growth inhibition at single dose [2]: < 70%

Cc1ccc(-c2csc(Nc3ccccn3)n2)c(C)c1
growth inhibition at single dose [2]: < 70%

Nc1nc(Nc2cc(Cl)cc(Cl)c2)c2[nH]cnc2n1
growth inhibition at single dose [2]: < 70%

CCOc1ccc(-n2cc(-c3ccccc3)c3c(SCc4cc(C)ccc4C)ncnc32)cc1
growth inhibition at single dose [2]: < 70%

O=c1c2ccccc2cnn1-c1nc2ccccc2[nH]1
growth inhibition at single dose [2]: < 70%

Cc1ccc(Cl)cc1N1CCN(CCCNC(=O)C2CCN(c3nc4ccccc4[nH]3)CC2)CC1
growth inhibition at single dose [2]: < 70%

CSc1nc2nc(C)c(CCC(=O)N(CC(F)(F)F)C(C)C3CC3)c(C)n2n1 (stereo unspecified)
growth inhibition at single dose [2]: < 70%

O=S(=O)(NC1CCN(c2nn3cc(-c4ccccc4)nc3s2)CC1)c1cccs1
growth inhibition at single dose [2]: < 70%

Cc1cccc(C(=O)Nc2ccnc(N(C)C3CCN(CC(C)C)CC3)c2)c1
growth inhibition at single dose [2]: < 70%

CCOC(=O)c1c(NC(=O)c2ccccc2)sc2c(O)c(CN(CC)CC)ccc12
growth inhibition at single dose [2]: < 70%

N=c1n(CCN2CCCCC2)c2ccccc2n1CC(=O)c1ccc(Cl)c(Cl)c1
growth inhibition at single dose [2]: < 70%

CCCCc1c(C)nc2c(OC)cccc2c1O
growth inhibition at single dose [2]: < 70%

CCn1nc(C)c(Sc2nccn2C)c1C
growth inhibition at single dose [2]: < 70%

CCCc1cc(O)c2c3c(c(=O)oc2c1)CN(C)CC3
growth inhibition at single dose [2]: < 70%

O=C(Nc1ccc(N2CCCCC2)c(Cl)c1)c1ccc(Br)o1
growth inhibition at single dose [2]: < 70%

CNC(=O)c1cc(S(=O)(=O)N2CCN(c3ccccn3)CC2)cs1
growth inhibition at single dose [2]: < 70%

Cc1cc(C(=O)Nc2cnn(Cc3ccc(Cl)cc3Cl)c2)no1
growth inhibition at single dose [2]: < 70%

Cc1ccc(O)c(C(=O)c2c[nH]c(-c3nc4ccccc4[nH]3)c2)c1
growth inhibition at single dose [2]: < 70%

N#C/C(=N\Nc1cc(C(F)(F)F)ccc1OCC(F)(F)F)S(=O)(=O)c1ccccc1
growth inhibition at single dose [2]: < 70%

CS(=O)(=O)N1CCC(Cn2nc(Cc3cccc4ccccc34)c3c(N)ncnc32)CC1
growth inhibition at single dose [2]: < 70%

Cc1cc(N2CCN(C3CCCC3)CC2)n2c(nc3ccccc32)c1C#N
growth inhibition at single dose [2]: < 70%

O=C(N[C@H](Cc1ccccc1)C(=O)Nc1ccccc1N1CCOCC1)c1cccs1
growth inhibition at single dose [2]: < 70%

N#Cc1ccnc(N2CCN(C(=O)c3cccc(-n4cccc4)c3)CC2)c1
growth inhibition at single dose [2]: < 70%

Cc1ccc2[nH]c3c(NCCN(C)C)ncnc3c2c1
growth inhibition at single dose [2]: < 70%

Cc1nc(C(=O)N2CCc3c(c(C(=O)NC4CCCC4)nn3CC(C)C)C2)cs1
growth inhibition at single dose [2]: < 70%

COCCNC(=O)c1nn(CCC(C)C)c2c1CN(C(=O)c1cc(C)n[nH]1)CC2
growth inhibition at single dose [2]: < 70%

N#Cc1nc(-c2ccccc2F)oc1NCCc1ccccc1
growth inhibition at single dose [2]: < 70%

CCCS(=O)(=O)c1cnc(C2COc3ccccc3O2)nc1N (stereo unspecified)
growth inhibition at single dose [2]: < 70%

C=CCN(C(=O)c1[nH]c(C)c(C(C)=O)c1C)c1nc2c(s1)CCCC2
growth inhibition at single dose [2]: < 70%

COc1ccc(-n2ccnc2SCC(=O)Nc2cc(C)ccc2C)c(OC)c1
growth inhibition at single dose [2]: < 70%

CN1CCCC1CCO[C@](C)(c1ccccc1)c1ccc(Cl)cc1 (stereo partly specified)
growth inhibition at single dose [2]: < 70%

C[n+]1c2ccccc2nc2ccc(NCCO)cc21
growth inhibition at single dose [2]: < 70%

CCCc1ccc(-c2nc(-c3cccs3)no2)cc1
growth inhibition at single dose [2]: < 70%
